# Assays:
# LNCaP C4-2B = experiment: Cytotoxicity against human C4-2B cells after 72 hrs by MTT assay; type: functional, cell-based
# DU-145 = experiment: Growth inhibition of human DU145 cells at 2 uM after 72 hrs by MTT assay relative to control; type: functional; conditions: DU-145, 72 h, read-out: GI
smiles,measurement,setting,value
C[C@@H]1NC(=O)/C=C/[C@@H](O)CC[C@H](C)NC(=O)[C@H]2C[C@]1(O)NC1=C2C(=O)N[C@@H](C)C1,IC50,LNCaP C4-2B,5.4 µM
same,inhibition of growth at 2 µM,DU-145,4.5%

# From ChEMBL document CHEMBL4190202, “Gunnilactams A-C, Macrocyclic Tetralactams from the Mycelial Culture of the Entomogenous Fungus Paecilomyces gunnii” (J Nat Prod, 2017)
